Experimental data: patent US20240139167A1, “LYSOSOME-ASSOCIATED MEMBRANE PROTEIN TARGETING COMPOUNDS AND USES THEREOF” (HADASIT MEDICAL RESEARCH SERVICES AND DEVELOPMENT LTD., priority 2021, published 2024)

System: PD patient-derived skin fibroblasts
Experiment: Autophagic flux in Pompe disease fibroblasts
Type: cell-based, human
Protocol: FIG. 15 includes a micrograph and a vertical bar graph showing autophagic flux in PD patient-derived skin fibroblasts, serum starved and treated (or not) with 50 μM 144DG11 (indicated as comp. A).
144DG11 can activate autophagy in the lysosomal storage disease (LSD) Pompe disease (PD) in which autophagy is perturbed (FIG. 15). […] This ratio serves as the most accepted marker for autophagy and autophagic flux. […] These observations indicate that, as in the GSD APBD, 144DG11 can activate autophagy also in the typical LSD PD in which autophagy is disturbed.

Compound: CC[C@]1(O)C[C@@H]2CN(CCc3c([nH]c4ccccc34)[C@@](C(=O)OC)(c3cc4c(cc3OC)N(C)[C@H]3[C@@](O)(C(=O)OC)[C@H](OC(C)=O)[C@]5(CC)C=CCN6CC[C@]43[C@@H]65)C2)C1 [vinblastine, reference compound]
- ratio of LC3II to LC3I: increased
